The source of these data is patent publication US10206907B2, “Compounds useful for the treatment of degenerative and inflammatory diseases” (GALAPAGOS NV, priority 2008, dated 2019).

Series [1] in a line: Caco2 permeability (bi-directional). The format is in vitro ADME, human. Particulars: human, pH 7.4; for efflux ratio at 1 h, 10 µM: Caco-2, ratio of PappB>A/PappA>B; for Papp A→B at 1 h, 10 µM: Caco-2, apical to basolateral, read-out: Papp (A2B). The gist of the method:
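Compound concentrations in both chambers were measured by LC-MS/MS after 1 h incubation at 37 °C on an orbital shaker. Efflux ratio is PappB>A over PappA>B. Lucifer Yellow (50 μM in donor) confirmed layer integrity, with permeability of ≤100 nm/s required.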

Series [2] concerns JAK-STAT signalling in HeLa cells. Nature of the series: JAK-STAT signalling assay (OSM-triggered pSTAT1(2)-luciferase reporter in HeLa cells). The format is cell-based. Particulars: Homo sapiens; HeLa cells, OSM-triggered pSTAT1(2)-luciferase reporter; read-out: STAT signalling EC50. In outline:
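Read-out is oncostatin M–driven pSTAT1(2)-luciferase activity, corrected by co-transfected LacZ β-galactosidase, in transiently transfected HeLa cells cultured overnight at 37 °C, 10% CO2. Inhibition percentages against positive and negative controls were plotted across doses to derive EC50.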
On the technique in general: A reporter such as luciferase makes a cellular process visible.

For the next series, the system named is TNF-alpha release. Nature of the series: Septic shock model (LPS-induced TNF release). The class given is in vivo, mouse. The settings on record: 30 mg/kg po, BALB/cJ mice, LPS ip; statistically significant. How it is done: Injection of lipopolysaccharide (LPS) induces a rapid release of soluble tumour necrosis factor (TNF-alpha) into the periphery. This model is used to analyse prospective blockers of TNF release in vivo.
Six BALB/cJ female mice (20 g) per group were treated at the intended dosing once, po. Thirty minutes later, LPS (15 μg/kg; E. Coli serotype 0111:B4) was injected ip. Ninety minutes later, mice were euthanized and blood was collected. Circulating TNF alpha levels were determined using commercially available ELISA kits. Dexamethasone (5 μg/kg) was used as a reference anti-inflammatory compound. Selected compounds are tested at one or multiple doses, e.g. 3 and/or 10 and/or 30 mg/kg, po.

Series [3] is described as follows: Microsomal stability, human liver microsomes. The class given is in vitro ADME. The settings on record: percentage of compound remaining after 60 minutes, 3 μM compound. In outline: (§1)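 Percent parent remaining after 60 min was determined by LCMS against a time-zero sample quenched before microsome addition. Incubations ran at 37°C with liver microsomes and a G6PDH-based NADPH-regenerating cofactor mix. Quench was MeOH or ACN (1:1).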

The test system of a further series is MMP13 in SW1353 cells. Nature of the series: OSM/IL-1β signaling assay (MMP13 levels in SW1353 cells).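 Note: secreted MMP13 captured by antibody, activated with APMA and its activity read by fluorescence, inhibition scaled between vehicle-treated triggered wells (0%) and untriggered wells (100%).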 The class given is cell-based. The settings on record: Homo sapiens; SW1353 cells, OSM and IL-1β triggered, MMP13 levels 48 hours after triggering; read-out: MMP13 EC50.
The nature of series [4]: Microsomal stability, rat liver microsomes. The format is in vitro ADME. Particulars: percentage of compound remaining after 60 minutes, 3 μM compound. The gist of the method: as §1
Background: Liver microsomes are vesicles of endoplasmic reticulum, rich in cytochrome P450 enzymes.

Series [5] addresses Recombinant human JAK3 catalytic domain (Homo sapiens (Human), UniProt P52333). In words: JAK3 inhibition assay. Particulars: semi-quantitative score. The format is biochemical.
Series [6] has as its target Recombinant human JAK1 catalytic domain (Homo sapiens (Human), UniProt P23458). Nature of the series: JAK1 inhibition assay. The format is biochemical. Particulars: semi-quantitative score. The gist of the method:
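IC50 values come from dose-response series, with each point expressed as percent inhibition of cpm. Vehicle sets full activity and 10 μM staurosporine sets background. Incorporated radioactivity counted by scintillation after washing with 75 mM phosphoric acid.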

Series [7] deals with Recombinant human JAK2 catalytic domain (Homo sapiens (Human), UniProt O60674). Nature of the series: JAK2 inhibition assay. The class given is biochemical. Particulars: semi-quantitative score. The gist of the method:
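Activity was taken as vehicle cpm minus cpm with 10 μM staurosporine, and inhibition was expressed on that scale. Incubation was 90 min at 30 °C, followed by acid quench, phosphoric acid washes and Microscint counting. Compounds were tested as dose series to obtain IC50.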

A word on the efflux ratio: it is a quotient of directional permeabilities that is used to spot active efflux. The EC50 is the concentration at which the effect is half-maximal. The IC50 is the point on the concentration scale where inhibition reaches its midpoint.

Each structure is given as a SMILES string.

Sequence of Recombinant human JAK2 catalytic domain (O60674 808-1132): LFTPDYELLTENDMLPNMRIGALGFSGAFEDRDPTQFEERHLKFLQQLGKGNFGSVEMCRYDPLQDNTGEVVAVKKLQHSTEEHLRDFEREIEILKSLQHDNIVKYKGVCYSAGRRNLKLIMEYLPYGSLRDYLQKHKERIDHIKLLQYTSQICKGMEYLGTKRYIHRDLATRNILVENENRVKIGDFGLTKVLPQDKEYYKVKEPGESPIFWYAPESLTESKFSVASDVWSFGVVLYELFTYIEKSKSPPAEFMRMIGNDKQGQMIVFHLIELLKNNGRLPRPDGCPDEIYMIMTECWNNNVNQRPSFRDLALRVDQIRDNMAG
Sequence of Recombinant human JAK1 catalytic domain (P23458 850-1154): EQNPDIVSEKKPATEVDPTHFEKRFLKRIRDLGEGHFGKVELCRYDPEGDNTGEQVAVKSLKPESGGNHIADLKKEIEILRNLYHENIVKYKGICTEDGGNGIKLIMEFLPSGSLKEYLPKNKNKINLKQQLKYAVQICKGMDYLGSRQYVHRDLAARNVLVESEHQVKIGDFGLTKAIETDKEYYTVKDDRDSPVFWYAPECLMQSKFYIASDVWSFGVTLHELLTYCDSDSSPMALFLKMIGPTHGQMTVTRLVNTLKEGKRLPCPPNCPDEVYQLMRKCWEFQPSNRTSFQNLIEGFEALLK
Sequence of Recombinant human JAK3 catalytic domain (P52333 781-1124): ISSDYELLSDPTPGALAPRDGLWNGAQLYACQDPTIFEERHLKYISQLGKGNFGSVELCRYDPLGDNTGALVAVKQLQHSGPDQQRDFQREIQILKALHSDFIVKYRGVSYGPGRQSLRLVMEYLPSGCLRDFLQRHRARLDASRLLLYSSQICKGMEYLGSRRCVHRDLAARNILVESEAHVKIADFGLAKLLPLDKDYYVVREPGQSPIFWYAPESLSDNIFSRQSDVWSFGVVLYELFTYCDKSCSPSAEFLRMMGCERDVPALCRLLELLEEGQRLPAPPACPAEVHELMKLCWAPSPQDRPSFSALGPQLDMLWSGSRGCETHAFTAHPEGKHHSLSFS

For the compound `O=C(Nc1nc2cccc(-c3ccc(OCc4cccnc4)cc3)n2n1)C1CC1` [Compound 36, N-(5-(4-(pyridin-3-ylmethoxy)phenyl)-[1,2,4]triazolo[1,5-a]pyridin-2-yl)cyclopropanecarboxamide], in [1], the efflux ratio at 1 h, 10 µM amounted to 0.89. Further, the EC50 in [2] was in the range of 101 to 500 nM; with MMP13 in SW1353 cells, 501 to 1000 nM. Moreover, the “reduction in the TNF release” value in the series on TNF-alpha release is listed as above 50%. Further, the “Microsomal Stability Human (%)” value in [3] was “* (* 0-25)”. In addition, in [4], the “Microsomal Stability Rat (%)” value is “*** (*** 51-75)”.

With `O=C(Nc1nc2cccc(-c3ccc(OCc4ccc(-n5cccn5)cc4)cc3)n2n1)C1CC1` [Compound 125], the IC50 in series [5] and in series [6] was below 100 nM in each case. The EC50 (in [2]; with MMP13 in SW1353 cells) was above 1000 nM in each case. Further, the “reduction in the TNF release” value in the series with TNF-alpha release was above 50%. In addition, the “Microsomal Stability Human (%)” value in series [3] is reported as “*** (*** 51-75)”. The “Microsomal Stability Rat (%)” value in series [4] is listed as “**** (**** 76-100)”.

`Cc1ccc(COc2ccc(-c3cccc4nc(NC(=O)C5CC5)nn34)cc2)cn1` [Compound 197, Cyclopropanecarboxylic acid {5-[4-(6-methyl-pyridin-3-ylmethoxy)-phenyl]-[1,2,4]triazolo[1,5-a]pyridin-2-yl}-amide]: the EC50 is 101 to 500 nM in series [2] and above 1000 nM in the series with MMP13 in SW1353 cells. Further, in the series with TNF-alpha release, the “reduction in the TNF release” value is above 50%. Moreover, the “Microsomal Stability Human (%)” value in series [3] is “** (** 26-50)”. Moreover, the IC50 in series [6] and in [7] was below 100 nM throughout. The “Microsomal Stability Rat (%)” value in series [4] is on record as “*** (*** 51-75)”.

As to `O=C(Nc1nc2cccc(-c3ccc(C(=O)N4CCS(=O)(=O)CC4)cc3)n2n1)C1CC1` [Compound 207, Cyclopropanecarboxylic acid {5-[4-(1,1-dioxo-thiomorpholine-4-carbonyl)-phenyl]-[1,2,4]triazolo[1,5-a]pyridin-2-yl}-amide], the Papp A→B at 1 h, 10 µM in series [1] is 0.05 ×10⁻⁶ cm/s. For the same compound, the efflux ratio at 1 h, 10 µM in series [1] turned out to be 104. For the same compound, the EC50 (in series [2]; in the series with MMP13 in SW1353 cells) was above 1000 nM throughout. For the same compound, the “reduction in the TNF release” value in the series with TNF-alpha release is listed as above 50%. Also, the “Microsomal Stability Human (%)” value in [3] is recorded as “**** (**** 76-100)”. Besides, the half-maximal inhibitory concentration (IC50) in series [6] and in series [7] was below 100 nM each time. Further, the “Microsomal Stability Rat (%)” value in [4] is “**** (**** 76-100)”.

On to `CC(=O)N(Cc1ccccn1)c1ccc(-c2cccc3nc(NC(=O)C4CC4)nn23)cc1` [Compound 208, Cyclopropanecarboxylic acid {5-[4-(acetyl-pyridin-2-ylmethyl-amino)-phenyl]-[1,2,4]triazolo[1,5-a]pyridin-2-yl}-amide], for which the EC50 (in series [2]; with MMP13 in SW1353 cells) was above 1000 nM throughout. Moreover, in the series with TNF-alpha release, the “reduction in the TNF release” value is on record as above 50%. The “Microsomal Stability Human (%)” value in series [3] was “*** (*** 51-75)”. For the same compound, the IC50 in series [6] and in series [7] was below 100 nM throughout. Also, the “Microsomal Stability Rat (%)” value in series [4] is “**** (**** 76-100)”.

`O=C(Nc1nc2cccc(-c3ccc(CNc4ncccn4)cc3)n2n1)C1CC1` [Compound 229, Cyclopropanecarboxylic acid {5-[4-(pyrimidin-2-ylaminomethyl)-phenyl]-[1,2,4]triazolo[1,5-a]pyridin-2-yl}-amide]: in series [1], the Papp A→B at 1 h, 10 µM was determined as 25.9 ×10⁻⁶ cm/s. In addition, the efflux ratio at 1 h, 10 µM in [1] was found to be 1.6. Moreover, the EC50 (in series [2]; with MMP13 in SW1353 cells) was 501 to 1000 nM throughout. In addition, the “reduction in the TNF release” value with TNF-alpha release is above 50%. The “Microsomal Stability Human (%)” value in [3] is given as “*** (*** 51-75)”. Besides, the IC50 in series [6] and in series [7] was below 100 nM throughout. Moreover, in series [4], the “Microsomal Stability Rat (%)” value was “*** (*** 51-75)”.
